Where only a bound is given, the exact number is not on record here.

In one test the target is GCN2 kinase (Homo sapiens, UniProt Q9P2K8). Briefly: GCN2 enzyme inhibition assay (Transcreener ADP2 fluorescence polarization). Type of test: biochemical. Particulars: Enzyme activity for compounds of Formula IV; Ki(app), 280 μM ATP, 25° C. The gist of the method: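 FP detection of ADP (antibody plus Alexa633 tracer) after a 1 h, 25 °C kinase reaction. Enzyme 4 nM, ATP 280 μM, (RS)7 peptide 200 μM, Tris pH 7.5 buffer with MgCl2 and DTT. Percent inhibition fitted by non-linear tight-binding algorithm for IC50 and Ki(app).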
For orientation: Fluorescence polarisation rises when a labelled molecule tumbles more slowly, as on binding a larger partner.

Test [1] deals with intracellular GCN2 (phosphorylation of the GCN2 substrate eIF2α) (Homo sapiens, UniProt Q9P2K8). Briefly: GCN2 cellular inhibition assay (AlphaScreen SureFire P-eIF2α Ser51, borrelidin-treated U2OS cells). The class given is cell-based. Particulars: compounds of Formula IV; biomarker assay, phosphorylated eIF2α Ser51 in borrelidin-treated U2OS cells. The essentials:
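U2OS, overnight attach; cpd 4-fold serial dil. from 40 μM final; borrelidin 10 μM, 1 h 37 °C/5% CO2; lyse; AlphaScreen P-eIF2α Ser51 (acceptor 2 h, donor overnight, RT, dark); % inhib. vs borrelidin-only.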
(In general: In Alpha technology, singlet oxygen from a donor bead excites a nearby acceptor bead.)

Sequence of intracellular GCN2 (phosphorylation of the GCN2 substrate eIF2α) (Q9P2K8 whole entry): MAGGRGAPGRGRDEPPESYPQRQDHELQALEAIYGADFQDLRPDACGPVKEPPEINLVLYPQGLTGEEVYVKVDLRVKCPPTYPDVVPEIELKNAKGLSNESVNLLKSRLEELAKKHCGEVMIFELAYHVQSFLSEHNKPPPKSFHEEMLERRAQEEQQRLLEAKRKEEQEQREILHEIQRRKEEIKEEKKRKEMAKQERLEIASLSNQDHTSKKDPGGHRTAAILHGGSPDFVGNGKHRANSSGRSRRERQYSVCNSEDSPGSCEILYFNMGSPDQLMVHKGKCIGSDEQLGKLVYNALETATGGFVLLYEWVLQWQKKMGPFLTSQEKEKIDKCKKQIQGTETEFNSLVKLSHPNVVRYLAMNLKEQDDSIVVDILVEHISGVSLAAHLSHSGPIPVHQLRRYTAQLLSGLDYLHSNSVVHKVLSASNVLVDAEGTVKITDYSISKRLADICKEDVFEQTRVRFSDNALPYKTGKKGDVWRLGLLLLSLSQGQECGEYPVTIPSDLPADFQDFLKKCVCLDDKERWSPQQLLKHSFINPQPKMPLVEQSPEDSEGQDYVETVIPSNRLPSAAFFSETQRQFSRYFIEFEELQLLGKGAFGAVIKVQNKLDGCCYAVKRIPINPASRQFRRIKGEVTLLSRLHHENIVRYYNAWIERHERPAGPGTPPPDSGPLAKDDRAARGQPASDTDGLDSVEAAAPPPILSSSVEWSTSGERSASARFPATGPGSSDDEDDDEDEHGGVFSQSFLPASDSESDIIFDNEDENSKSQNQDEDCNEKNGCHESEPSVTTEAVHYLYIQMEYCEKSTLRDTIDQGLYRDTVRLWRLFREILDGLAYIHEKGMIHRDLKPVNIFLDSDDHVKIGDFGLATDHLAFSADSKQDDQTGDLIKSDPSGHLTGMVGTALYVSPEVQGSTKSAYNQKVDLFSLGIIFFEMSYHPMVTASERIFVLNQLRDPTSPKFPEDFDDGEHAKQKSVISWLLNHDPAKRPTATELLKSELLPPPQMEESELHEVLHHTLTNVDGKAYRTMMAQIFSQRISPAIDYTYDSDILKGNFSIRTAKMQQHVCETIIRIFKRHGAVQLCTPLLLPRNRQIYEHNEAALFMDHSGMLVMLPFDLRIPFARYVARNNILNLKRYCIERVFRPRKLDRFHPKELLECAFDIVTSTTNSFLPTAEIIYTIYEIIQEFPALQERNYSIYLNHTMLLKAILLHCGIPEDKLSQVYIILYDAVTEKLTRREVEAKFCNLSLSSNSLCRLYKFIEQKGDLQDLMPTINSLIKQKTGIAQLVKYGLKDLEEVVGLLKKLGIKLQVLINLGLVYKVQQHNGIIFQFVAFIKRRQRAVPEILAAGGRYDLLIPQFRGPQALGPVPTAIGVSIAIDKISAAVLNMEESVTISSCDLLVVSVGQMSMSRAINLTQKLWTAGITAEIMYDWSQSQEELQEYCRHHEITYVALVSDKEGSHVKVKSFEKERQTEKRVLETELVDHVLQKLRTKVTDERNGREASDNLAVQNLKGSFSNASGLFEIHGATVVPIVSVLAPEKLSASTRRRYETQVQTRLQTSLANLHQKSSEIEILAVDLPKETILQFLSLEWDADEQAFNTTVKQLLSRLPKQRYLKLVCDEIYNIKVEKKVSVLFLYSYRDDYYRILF
Sequence of GCN2 kinase (Q9P2K8 whole entry): as above

As to `FC(F)c1cn2c(-c3nccc(N4CC5CCC(C4)O5)n3)cnc2cn1` [IV-91, 3-(2-(6-(Difluoromethyl)imidazo[1,2-a]pyrazin-3-yl)pyrimidin-4-yl)-8-oxa-3-azabicyclo[3.2.1]octane], on GCN2 kinase, the Ki fell in the range of 0.1 to 1 µM. Moreover, the IC50 (commonly the concentration that inhibits the measured activity by half) in test [1] was more than 5 µM.

Compound `OCCc1cc(C2CCCN(c3ccnc(-c4cnc5cnc(C(F)F)cn45)n3)C2)n[nH]1` (centres unmarked) [IV-92, 2-(3-(1-(2-(6-(Difluoromethyl)imidazo[1,2-a]pyrazin-3-yl)pyrimidin-4-yl)piperidin-3-yl)-1H-pyrazol-5-yl)ethan-1-ol] displayed a Ki on GCN2 kinase of 0.1 to 1 µM. This compound also registered an IC50 in test [1] of more than 5 µM.

As to `OCc1cc(C2CCCN(c3ccnc(-c4cnc5cnc(C(F)F)cn45)n3)C2)n[nH]1` (centres unmarked) [IV-93, (3-(1-(2-(6-(Difluoromethyl)imidazo[1,2-a]pyrazin-3-yl)pyrimidin-4-yl)piperidin-3-yl)-1H-pyrazol-5-yl)methanol], the Ki on GCN2 kinase lay within 0.1 to 1 µM. Further, in test [1], the IC50 is more than 5 µM.

As for `NC(=O)c1cc(C2CCCN(c3ccnc(-c4cnc5cnc(C(F)F)cn45)n3)C2)n[nH]1` (centres unmarked) [IV-94, 3-(1-(2-(6-(Difluoromethyl)imidazo[1,2-a]pyrazin-3-yl)pyrimidin-4-yl)piperidin-3-yl)-1H-pyrazole-5-carboxamide], the Ki on GCN2 kinase is 0.1 to 1 µM. The IC50 in test [1] is more than 5 µM.

At GCN2 kinase, `CNC(=O)c1cc(C2CCCN(c3ccnc(-c4cnc5cnc(C(F)F)cn45)n3)C2)n[nH]1` (centres unmarked) [IV-95, 3-(1-(2-(6-(Difluoromethyl)imidazo[1,2-a]pyrazin-3-yl)pyrimidin-4-yl)piperidin-3-yl)-N-methyl-1H-pyrazole-5-carboxamide] returned a Ki of 0.1 to 1 µM. Besides, the IC50 in test [1] is more than 5 µM.

Take `Cc1n[nH]cc1C1=CCCN(c2ccnc(-c3cnc4cnc(C(F)F)cn34)n2)C1` [IV-96, 6-(Difluoromethyl)-3-(4-(5-(3-methyl-1H-pyrazol-4-yl)-3,6-dihydropyridin-1 (2H)-yl)pyrimidin-2-yl)imidazo[1,2-a]pyrazine]: the Ki on GCN2 kinase was in the range of 0.01 to 0.1 µM. In test [1], the IC50 lay within 0.5 to 5 µM.

`Cc1n[nH]cc1C1CCCN(c2ccnc(-c3cnc4cnc(C(F)F)cn34)n2)C1` (centres unmarked) [IV-97, 6-(Difluoromethyl)-3-(4-(3-(3-methyl-1H-pyrazol-4-yl)piperidin-1-yl)pyrimidin-2-yl)imidazo[1,2-a]pyrazine]: the Ki at GCN2 kinase fell in the range of 0.01 to 0.1 µM. The compound further had an IC50 in test [1] of more than 5 µM.

`O=C1CCC2CN(c3ccnc(-c4cnc5cnc(C(F)F)cn45)n3)CCN12` (centres unmarked) [IV-98, 2-(2-(6-(Difluoromethyl)imidazo[1,2-a]pyrazin-3-yl)pyrimidin-4-yl)hexahydropyrrolo[1,2-a]pyrazin-6(2H)-one] registered a Ki at GCN2 kinase of 0.1 to 1 µM. The compound also gave an IC50 in test [1] of more than 5 µM.

Regarding `O=C1CCCC2CN(c3ccnc(-c4cnc5cnc(C(F)F)cn45)n3)CCN12` (centres unmarked) [IV-99, 2-(2-(6-(Difluoromethyl)imidazo[1,2-a]pyrazin-3-yl)pyrimidin-4-yl)octahydro-6H-pyrido[1,2-a]pyrazin-6-one], the Ki at GCN2 kinase was 0.1 to 1 µM. Moreover, the IC50 in test [1] was more than 5 µM.

`O=C1OCC2CN(c3ccnc(-c4cnc5cnc(C(F)F)cn45)n3)CCN12` (centres unmarked) [IV-100, 7-(2-(6-(Difluoromethyl)imidazo[1,2-a]pyrazin-3-yl)pyrimidin-4-yl)hexahydro-3H-oxazolo[3,4-a]pyrazin-3-one]: at GCN2 kinase, the Ki is 0.1 to 1 µM. The IC50 in test [1] is more than 5 µM.

`NS(=O)(=O)N1CCCN(c2ccnc(-c3cnc4cnc(C(F)F)cn34)n2)CC1` [IV-101, 4-(2-(6-(Difluoromethyl)imidazo[1,2-a]pyrazin-3-yl)pyrimidin-4-yl)-1,4-diazepane-1-sulfonamide] displayed a Ki on GCN2 kinase of 0.1 to 1 µM. In test [1], this compound had an IC50 of more than 5 µM.

For `FC(F)c1cn2c(-c3nccc(N4CCC(C5CCOCC5)C4)n3)cnc2cn1` (centres unmarked) [IV-102, 6-(Difluoromethyl)-3-(4-(3-(tetrahydro-2H-pyran-4-yl)pyrrolidin-1-yl)pyrimidin-2-yl)imidazo[1,2-a]pyrazine], on GCN2 kinase, the Ki lay within 0.1 to 1 µM. The IC50 in test [1] was more than 5 µM.

Compound `FC(F)c1cn2c(-c3nccc(N4CCCCC4)n3)cnc2cn1` [IV-103, 6-(Difluoromethyl)-3-(4-(piperidin-1-yl)pyrimidin-2-yl)imidazo[1,2-a]pyrazine] registered a Ki on GCN2 kinase of 0.1 to 1 µM. This compound also yielded an IC50 in test [1] of more than 5 µM.

`FC(F)c1cn2c(-c3nccc(N4CCOCC4)n3)cnc2cn1` [IV-104, 4-(2-(6-(Difluoromethyl)imidazo[1,2-a]pyrazin-3-yl)pyrimidin-4-yl)morpholine]: on GCN2 kinase, the Ki fell in the range of 0.1 to 1 µM. The IC50 in test [1] is more than 5 µM.

With `FC(F)c1cn2c(-c3nccc(N4CCCCCC4)n3)cnc2cn1` [IV-105, 3-(4-(Azepan-1-yl)pyrimidin-2-yl)-6-(difluoromethyl)imidazo[1,2-a]pyrazine], at GCN2 kinase, the Ki was 0.1 to 1 µM. In addition, in test [1], the 50% inhibitory concentration (IC50) is more than 5 µM.

`CC1CCN(c2ccnc(-c3cnc4cnc(C(F)F)cn34)n2)CC1C(N)=O` (centres unmarked) [IV-108, 1-(2-(6-(Difluoromethyl)imidazo[1,2-a]pyrazin-3-yl)pyrimidin-4-yl)-4-methylpiperidine-3-carboxamide]: on GCN2 kinase, the Ki was 0.01 to 0.1 µM. The compound also yielded an IC50 in test [1] of 0.5 to 5 µM.

Turning to `CC1C(C(N)=O)CCCN1c1ccnc(-c2cnc3cnc(C(F)F)cn23)n1` (centres unmarked) [IV-109, 1-(2-(6-(Difluoromethyl)imidazo[1,2-a]pyrazin-3-yl)pyrimidin-4-yl)-2-methylpiperidine-3-carboxamide], the Ki at GCN2 kinase lay in the range of 0.01 to 0.1 µM. Also, the IC50 in test [1] fell in the range of 0.5 to 5 µM.

Regarding `OCC12CC1CN(c1ccnc(-c3cnc4cnc(C(F)F)cn34)n1)C2` (centres unmarked) [IV-111, (3-(2-(6-(Difluoromethyl)imidazo[1,2-a]pyrazin-3-yl)pyrimidin-4-yl)-3-azabicyclo[3.1.0]hexan-1-yl)methanol], on GCN2 kinase, the Ki was 0.1 to 1 µM. Moreover, the IC50 in test [1] is more than 5 µM.

Turning to `Cc1cc(C2CCCN(c3ccnc(-c4cnc5cnc(C(F)F)cn45)n3)C2)n[nH]1` (centres unmarked) [IV-112, 6-(Difluoromethyl)-3-(4-(3-(5-methyl-1H-pyrazol-3-yl)piperidin-1-yl)pyrimidin-2-yl)imidazo[1,2-a]pyrazine], the Ki at GCN2 kinase lay within 0.1 to 1 µM. In test [1], this compound returned a half-maximal inhibitory concentration (IC50) of more than 5 µM.

As to `Cn1nc(C2CCCN(c3ccnc(-c4cnc5cnc(C(F)F)cn45)n3)C2)cc1O` (centres unmarked) [IV-113, 3-(1-(2-(6-(Difluoromethyl)imidazo[1,2-a]pyrazin-3-yl)pyrimidin-4-yl)piperidin-3-yl)-1-methyl-1H-pyrazol-5-ol], the Ki at GCN2 kinase is 0.1 to 1 µM. Besides, the IC50 in test [1] was more than 5 µM.

Regarding `NS(=O)(=O)CC1CCCN(c2ccnc(-c3cnc4cnc(C(F)F)cn34)n2)C1` (centres unmarked) [IV-114, (1-(2-(6-(Difluoromethyl)imidazo[1,2-a]pyrazin-3-yl)pyrimidin-4-yl)piperidin-3-yl)methanesulfonamide], the Ki at GCN2 kinase was 0.1 to 1 µM. For the same compound, in test [1], the 50% inhibitory concentration (IC50) was more than 5 µM.

`FC(F)c1cn2c(-c3nccc(N4CCc5ccccc5C4)n3)cnc2cn1` [IV-115, 2-(2-(6-(Difluoromethyl)imidazo[1,2-a]pyrazin-3-yl)pyrimidin-4-yl)-1,2,3,4-tetrahydroisoquinoline] showed a Ki on GCN2 kinase of 0.1 to 1 µM. In test [1], this compound came in with an IC50 of more than 5 µM.

At GCN2 kinase, `OC1CCC2CN(c3ccnc(-c4cnc5cnc(C(F)F)cn45)n3)CC2C1` (centres unmarked) [IV-116, 2-(2-(6-(Difluoromethyl)imidazo[1,2-a]pyrazin-3-yl)pyrimidin-4-yl)octahydro-1H-isoindol-5-ol] yielded a Ki of 0.1 to 1 µM. In addition, the IC50 in test [1] was more than 5 µM.

The compound `NC(=O)C1COCCN(c2ccnc(-c3cnc4cnc(C(F)F)cn34)n2)C1` (centres unmarked) [IV-117, 4-(2-(6-(Difluoromethyl)imidazo[1,2-a]pyrazin-3-yl)pyrimidin-4-yl)-1,4-oxazepane-6-carboxamide] had a Ki on GCN2 kinase of 0.1 to 1 µM. The half-inhibitory concentration (IC50) in test [1] was more than 5 µM.

In turn, `NC1CCCN(c2ccnc(-c3cnc4cnc(C(F)F)cn34)n2)CC1` (centres unmarked) [IV-118, 1-(2-(6-(Difluoromethyl)imidazo[1,2-a]pyrazin-3-yl)pyrimidin-4-yl)azepan-4-amine] yielded a Ki at GCN2 kinase of 0.1 to 1 µM. The compound also registered a half-maximal inhibitory concentration (IC50) in test [1] of more than 5 µM.

At GCN2 kinase, `CC1CN(c2ccnc(-c3cnc4cnc(C(F)F)cn34)n2)CC(C)O1` (centres unmarked) [IV-119, 4-(2-(6-(Difluoromethyl)imidazo[1,2-a]pyrazin-3-yl)pyrimidin-4-yl)-2,6-dimethylmorpholine] displayed a Ki of 0.1 to 1 µM. This compound registered an IC50 in test [1] of more than 5 µM.

On GCN2 kinase, `OC1CCCN(c2ccnc(-c3cnc4cnc(C(F)F)cn34)n2)C1` (centres unmarked) [IV-120, 1-(2-(6-(Difluoromethyl)imidazo[1,2-a]pyrazin-3-yl)pyrimidin-4-yl)piperidin-3-ol] yielded a Ki of 0.1 to 1 µM. In addition, the IC50 in test [1] is more than 5 µM.

In turn, `OCC1CCCN(c2ccnc(-c3cnc4cnc(C(F)F)cn34)n2)C1` (centres unmarked) [IV-121, (1-(2-(6-(Difluoromethyl)imidazo[1,2-a]pyrazin-3-yl)pyrimidin-4-yl)piperidin-3-yl)methanol] returned a Ki at GCN2 kinase of 0.1 to 1 µM. Besides, the IC50 in test [1] was more than 5 µM.

`C[C@@H]1CCC[C@H](C)N1c1ccnc(-c2cnc3cnc(C(F)F)cn23)n1` [IV-122, 6-(Difluoromethyl)-3-(4-((2S,6R)-2,6-dimethylpiperidin-1-yl)pyrimidin-2-yl)imidazo[1,2-a]pyrazine] showed a Ki on GCN2 kinase of 0.1 to 1 µM. In test [1], this compound showed an IC50 of more than 5 µM.

`CN1CCN(c2ccnc(-c3cnc4cnc(C(F)F)cn34)n2)CC12CCNCC2` [IV-123, 4-(2-(6-(Difluoromethyl)imidazo[1,2-a]pyrazin-3-yl)pyrimidin-4-yl)-1-methyl-1,4,9-triazaspiro[5.5]undecane] returned a Ki at GCN2 kinase of 0.1 to 1 µM. The IC50 in test [1] was more than 5 µM.

Take `CS(=O)(=O)NC1CCCN(c2ccnc(-c3cnc4cnc(C(F)F)cn34)n2)CC1` (centres unmarked) [IV-124]: the Ki at GCN2 kinase was 0.1 to 1 µM. In addition, the IC50 in test [1] is more than 5 µM.
